Test results: US12338296B2, “Peptides and compounds that bind to elongation initiation factor 4E” (AGENCY FOR SCIENCE, TECHNOLOGY AND RESEARCH, priority 2019, dated 2025)
Entries after “also recorded” stand apart in the source; their conditions may differ.

Tests used:
eIF4E [1] = molecular target: T1, eIF4E (Homo sapiens, UniProt P06730); experiment: Tryptophan quenching experiments; type: binding; conditions: 1 μM eIF4E, 0.01-20 μM titrant, excitation 290 nm, emission 355 nm; FIG. 2
T1 construct: made in house; Plasmid and cells were provided by Cyclacel Ltd., Dundee
Protocol: Tryptophan Quenching Experiments
Tryptophan quenching experiments were performed using an EnVision® multiplate reader with black matte 96-well plates. […] Concentrations tested ranged from 0.01-20 μM. Samples were excited with UV light at 290 nm to minimise contribution from tyrosine fluorescence. Tryptophan was measured at an emission wavelength of 355 nm.

eIF4E cap-binding site = molecular target: T2, eIF4E cap-binding site (Homo sapiens, UniProt P06730); experiment: Competitive fluorescence polarization, cap analogue binding assessment (FAM labelled m7GTP); conditions: eIF4E 250 nM, labelled m7GTP 50 nM; FIG. 1B; listed as EE-02
T2 construct: made in house; Plasmid and cells were provided by Cyclacel Ltd., Dundee
Protocol: Apparent Kd values were determined by fitting the experimental data to the equations shown below:
[formula] [L]st and [L]t denote labeled ligand and total unlabeled ligand input concentrations, respectively. Kd2 is the dissociation constant of the interaction between the unlabelled ligand and the protein. In all competitive types of experiments, it is assumed that [P]t>[L]st, otherwise considerable amounts of free labeled ligand would always be present and would interfere with measurements. Kd1 is the apparent Kd for the labeled peptide used in the respective experiment. […] Readings were carried out with a Envision Multi-label Reader (PerkinElmer). Experiments were carried out in PBS (2.7 mM KCl, 137 mM NaCl, 10 mM NaHPO4 and 2 mM KHPO4 (pH 7.4)), 3% DMSO (v/v) and 0.1% Tween 20 buffer. All titrations were carried out in triplicate. Curve-fitting was carried out using Prism 4.0 (GraphPad). […]
From these initial results it was predicted the new peptide motif might interact with eIF4E either via a different binding pose at the eIF4G binding site, or at the cap-binding site or elsewhere on the protein. The binding site was initially delineated on eIF4E by using two types of competitive fluorescence polarization experiments, one of which utilised a FAM labelled cap-analogue and the other that used a FAM labelled eIF4G1 derived peptide (FIG. 1).

eIF4E [2] = molecular target: T1, eIF4E; experiment: Fluorescence anisotropy direct titration of eIF4E against FAM labelled tracers; conditions: 50 nM tracer, eIF4E titrated, 1:1 binding model; read-out: Kd for interaction of labelled tracer with eIF4E
Source text: Fluorescence Anisotropy Assays and Kd Determination.
Both were used later for subsequent Kd determination in competition experiments.

T2 sequence (P06730 whole entry): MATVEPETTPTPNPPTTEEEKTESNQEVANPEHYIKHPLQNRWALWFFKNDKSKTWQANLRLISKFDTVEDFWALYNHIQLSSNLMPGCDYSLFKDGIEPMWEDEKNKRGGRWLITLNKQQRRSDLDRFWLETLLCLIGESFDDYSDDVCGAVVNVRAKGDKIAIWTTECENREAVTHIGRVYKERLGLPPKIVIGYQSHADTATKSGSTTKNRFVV
T1 sequence (P06730 whole entry): as above

| Compound | tryptophan quenching of eIF4E (eIF4E [1]) | displacement of fluorescently labelled m7GTP from eIF4E (eIF4E cap-binding site) | Kd (eIF4E [2]) [nM] |
| --- | --- | --- | --- |
| CSCC[C@@H]1NC(=O)[C@H](CCC(=O)O)NC(=O)[C@@H](NC(=O)[C@H](C)N)CSSC[C@@H](C(=O)NCC(N)=O)NC(=O)[C@H](CC(=O)O)NC(=O)[C@H](CCC(N)=O)NC(=O)[C@H](Cc2ccccc2)NC(=O)[C@H](Cc2ccccc2)NC(=O)CNC1=O [EE-2] | significantly different profile to m7GTP/m7GDP | most potent peptide out of the set identified; also recorded: can displace fluorescently labelled m7GTP | – |
| m^7GTP-6-FAM | – | – | 149 |
